Measured values taken from patent EP2067861A1, “Animals of the rattus genus wherein msh6 expression is functionally decreased and methods for the generation of specific mutants therefrom” (Koninklijke Nederlandse Akademie van Wetenschappen, priority 2007, dated 2009).

Tested on: Male MSH6 knockout rats (Msh6^1Hubr)
Test: ENU-induced germ line mutation discovery by resequencing 768 amplicons in F1 progeny
Format: in vivo, rat
Experimental: All experiments were approved by the Animal Care Committee of the Royal Dutch Academy of Science according to the Dutch legal ethical guidelines. Experiments were designed to minimize the number of required animals and their suffering. Male MSH6 knockout rats (Msh6^1Hubr) of 12 weeks of age were given three weekly intraperitoneal injections of 25, 30 and 35 mg/kg bodyweight ENU. Preparation of ENU (Isopac; Sigma) was done as decribed (for detailed description, see (Smits et al. (2006) Pharmacogenet Genomics 16, 159-69) After the treatment the injected males were monitored for fertility by breeding with one or two females. Pups from these early matings were counted, but not analyzed. Ten weeks after the last injection, fertile males of the highest-dosed fertile group were kept on a weekly breeding scheme with two females to produce F1 progeny for mutational analysis. Animals were housed under standard conditions in groups of two to three per cage per gender under controlled experimental conditions (12-h light/dark cycle, 21±1°C, 60% relative humidity, food and water ad libitum).
At two weeks of age F1 progeny were uniquely tagged by fetching ear clips. Ear clips were lysed for at least 2 hours at 55°C and 1400 rpm in a Thermomixer comfort (Eppendorf) in 400 µl lysisbuffer (100 mM Tris (pH 8.5), 200 mM NaCl, 0.2% SDS, 5 mM EDTA and 100 µg/ml of freshly added Proteinase K) followed by phenol/chloroform (1:1, vol/vol) extraction. The DNA was precipitated by adding 300 µl isopropanol, mixing and centrifuging for 20 min, at 21,000 g at 4°C. The supernatant was discarded and pellets were washed with 70% ethanol and dissolved in 500 µl MQ.
768 pre-selected amplicons were amplified using a nested PCR setup. The first PCR was carried out using a touchdown thermocycling program (94°C for 60 sec; 15 cycles of 92°C for 30 sec, 65°C for 30 sec with a decrement of 0.6°C per cycle, 72°C for 60 sec; followed by 30 cycles of 92°C for 30 sec, 58°C for 30 sec and 72°C for 60 sec; 72°C for 180 sec; GeneAmp9700, Applied Biosystems). The PCR reaction contained ±100 ng DNA, 0.2 µM of each forward primer and 0.2 µM of each reverse primer, 400 µM of each dNTP, 25 mM tricine, 7.0% glycerol (w/v), 1.6% dimethyl sulfoxide (DMSO) (w/v), 2 mM MgCl2, 85 mM ammonium acetate pH 8.7 and 0.2 U Taq Polymerase in a total volume of 5 µl. After thermocycling, the PCR1 reactions were diluted with 20 µl H2O and 1 µl was used as template for the second round of PCR. The second PCR was done using a standard thermocycling program (94°C for 60 sec; 35 cycles of 92°C for 20 sec, 58°C for 30 sec and 72°C for 60 sec; 72°C for 180 sec; GeneAmp9700, Applied Biosystems). PCR2 mixes contained 1 µl diluted PCR1 template, 0.1 µM forward primer, 0.1 µM reverse primer, 100 µM of each dNTP, 25 mM tricine, 7.0% glycerol (w/v), 1.6% DMSO (w/v), 2 mM MgCl2, 85 mM ammonium acetate pH 8.7 and 0.1 U Taq Polymerase in a total volume of 5 µl. Several samples of each plate were tested on a 1% agarose gel containing ethidium bromide for the presence of the proper PCR fragment. PCR2 products were diluted with 20 µl H2O and 1 µl was directly used as a template for the sequencing reactions. Sequencing reactions contained 0.1 µl BigDye (v3.1; Applied Biosystems), 1.9 µl BigDye Dilution Buffer (Applied Biosystems) and 0.4 µM of the forward primers used for the PCR2 reaction in a total volume of 5 µl. The thermocycling program that was recommended by the manufacturer was used for the sequence reactions (40 cycles of 94°C for 10 sec, 50°C for 5 sec and 60°C for 120 sec). Sequencing products were purified by ethanol precipitation in the presence of 40 mM sodium-acetate and analyzed on a 96-capillary 3730XL DNA analyzer (Applied Biosystems), using the standard RapidSeq protocol on 36 cm array. Sequences were analyzed for the presence of heterozygous mutations using PolyPhred (Nickerson et al. (1997) Nucleic Acids Res. 25, 2745-51) and in-house developed software. […]

[1] = 3 x 30 mg/kg bodyweight ENU, animals born 14 - 16 weeks after the ENU injection
[2] = 94 coding mutations, all MSH6^-/- dose groups
[3] = ENU mutation spectrum, MSH6 deficient compared to proficient background
[4] = MSH6^-/- 3 x 25 mg/kg ENU, 16 pups, 3.57 x 10^6 bases screened
[5] = MSH6^-/- 3 x 30 mg/kg ENU, 291 pups, 69.66 x 10^6 bases screened
[6] = MSH6^-/- 3 x 35 mg/kg ENU, 3 pups, 0.72 x 106 bases screened
[7] = MSH6^-/- Total of the three dose groups

## CCN(N=O)C(N)=O [ENU, N-ethyl-N-nitrosourea]
3 x 30 mg/kg bodyweight ENU, F1 born 14 - 16 weeks after last injection
  Mutation Frequencies: 1.88 x 10^-6
3 x 30 mg/kg bodyweight ENU, F1 born 14 - 16 weeks after last injection, 59 pups, 14.92 x 10^6 bases screened
  # Mutations: 28
3 x 30 mg/kg bodyweight ENU, F1 born 17 - 19 weeks after last injection
  Mutation Frequencies: 1.65 x 10^-6
3 x 30 mg/kg bodyweight ENU, F1 born 17 - 19 weeks after last injection, 62 pups, 13.30 x 106 bases screened
  # Mutations: 22
3 x 30 mg/kg bodyweight ENU, F1 born 20 - 22 weeks after last injection
  Mutation Frequencies: 1.24 x 10^-6
3 x 30 mg/kg bodyweight ENU, F1 born 20 - 22 weeks after last injection, 67 pups, 15.34 x 10^6 bases screened
  # Mutations: 19
3 x 30 mg/kg bodyweight ENU, F1 born 23 - 25 weeks after last injection
  Mutation Frequencies: 9.92 x 10^-7
3 x 30 mg/kg bodyweight ENU, F1 born 23 - 25 weeks after last injection, 64 pups, 16.14 x 10^6 bases screened
  # Mutations: 16
3 x 30 mg/kg bodyweight ENU, F1 born 23 weeks after the last injection or later
  mutation frequency: approximately 1.0 x 10^-6 per base pair
3 x 30 mg/kg bodyweight ENU, F1 born 26 - 29 weeks after last injection
  Mutation Frequencies: 1.10 x 10^-6
3 x 30 mg/kg bodyweight ENU, F1 born 26 - 29 weeks after last injection, 39 pups, 9.97 x 10^6 bases screened
  # Mutations: 11
[1]
  mutation frequency: 1.88 x 10^-6 per base pair
  mutation rate (1 mutation every ... base pairs): 5.3 x 10^5 base pairs
3 x 30 mg/kg bodyweight ENU, animals born 17 - 19 weeks after the last ENU injection
  mutation frequency: 1.65 x 10^-6 per base pair
3 x 30 mg/kg bodyweight ENU, animals born 20 - 22 weeks after the last ENU injection
  mutation frequency: 1.24 x 10^-6 per base pair
[2]
  missense mutations, share of coding mutations: ~74%
  nonsense mutations, share of coding mutations: ~4%
  silent mutations, share of coding mutations: ~21%
[3]
  percentage of A:T to G:C transitions: significantly decreased
  percentage of G:C to A:T transitions: significantly increased
  percentages of transversions: No significant change
MSH6^-/- 3 x 25 mg/kg ENU
  # Mutations - non-coding: 0
  # Mutations - silent: 1
[4]
  # Mutations - missense: 4
  # Mutations - nonsense: 0
  # Mutations - total: 5
MSH6^-/- 3 x 25 mg/kg ENU, F1 progeny
  Mutation Frequencies: 1.40 x 10^-6
MSH6^-/- 3 x 30 mg/kg ENU
  # Mutations - non-coding: 8
  # Mutations - silent: 19
[5]
  # Mutations - missense: 65
  # Mutations - nonsense: 4
  # Mutations - total: 96
MSH6^-/- 3 x 30 mg/kg ENU, F1 progeny
  Mutation Frequencies: 1.38 x 10^-6
MSH6^-/- 3 x 35 mg/kg ENU
  # Mutations - non-coding: 0
  # Mutations - silent: 0
[6]
  # Mutations - missense: 1
  # Mutations - nonsense: 0
MSH6^-/- 3 x 35 mg/kg ENU, F1 progeny
  Mutation Frequencies: 1.38 x 10^-6
[7]
  # Mutations - missense: 70
  # Mutations - non-coding: 8
  # Mutations - silent: 20
MSH6^-/- Total of the three dose groups, 310 pups, 73,95 x 10^6 bases screened
  # Mutations - total: 102
MSH6 deficient 3 x 30 mg/kg ENU versus control 3 x 40 mg/kg
  increase of mutation rate compared to control animals: 1.7 x
MSH6 deficient, 3 x 30 mg/kg bodyweight ENU, 291 F1 progeny, almost 70 Mb
  mutation rate (1 mutation every ... base pairs): 7.26 x 10^5 base pairs
Of the 102 mutations found, all MSH6^-/- dose groups
  mutations in coding regions: 94
